Tested on: human immunodeficiency virus (HIV)
Test: HIV viral assay (carried out by Imquest Bioscience)
Format: cell-based
Protocol: Antiviral compounds may be incorporated into polymers, such as hydrophilic polyurethanes or silicone, for certain applications where antiviral activities are needed.
The compound (0.5 gms) was protonated using dilute hydrochloric acid to a pH of 4 to a total volume of 30 ml. To 5 gms of this solution was added 5 gms of polyvinyl sulfonate (Aldrich, a 25 wt % aqueous solution). A white precipitate of the adduct immediately formed and remained colloidal without settling. This was used as such for an assay carried out by Imquest Bioscience, MD, and high dilutions were studied. […] These and other compounds could be incorporated into the polyurethane plastics of this invention for their slow delivery of antivirals; other viruses could be potentially also be deactivated.

For c1c[nH]c(-c2ncc[nH]2)n1 [bimidazole, biimidazole], the “antiviral efficacy (in words)” value was “potent antiviral”.

— patent US20080124368A1, “Composition” (priority 2004, published 2008)
